Data as given in a melting point compilation (Tetko et al.; mined from patent text by program, amines drawn as free bases though some values may be those of a salt).

Compound CS(=O)(=O)c1ccc(-n2cccc2-c2ccc(F)cc2)cc1 has a melting point of 195 to 196 °C.
Work on CCN(CC)CCNC(=O)N1CCc2cc(OC)c(OC)cc2C1c1ccccc1 (centres undefined) yielded a melting point of 97 to 98 °C.
For CC(C)C[C@@H](OC(=O)c1cc(Cl)ccn1)C(=O)O, the melting point was 120 to 122 °C.
Work on CC(C)c1cnc(NC(=O)Cc2csc(N)n2)s1 yielded a melting point of 201 to 203 °C.
With O=C(NC1(COc2ccc(Br)cc2)COC1)OCc1ccccc1 the melting point was 101 to 103 °C.
With O=c1ccc(C(F)(F)F)cn1Cc1ccccc1NCCN1CCOCC1 the melting point was 101 to 103 °C.
For CC1Nc2cnccc2N(C)n2cccc21 (centres undefined), the melting point was 157 to 160 °C.
In the case of CCCCOC(=O)Oc1ccc(-c2ccc(C#N)cc2)cc1, the melting point is reported as 64.8 to 65.7 °C.
Compound O=c1ccc(C(F)(F)F)cn1-c1ccc(NCCO)cc1Cl has a melting point of 161 to 164 °C.
COc1ccccc1N1CCN(C(=O)N(C)c2nc3ccccc3nc2OC)CC1 showed a melting point of 128 to 130 °C.
For CCN(CC)C(=O)CCC(=O)Nc1ccc(C(=O)N2CCCCc3ccccc32)cc1, the melting point was 165 to 167 °C.
Work on CNc1cc(CC(C)C)ccc1-c1ccccc1S(=O)(=O)Nc1onc(C)c1C yielded a melting point of 125 to 128 °C.
For CCC(COC)NC(=O)C(Cc1ccc(OCc2ccccc2)cc1)NC(=O)C(CC(C)C)N(C)Cc1ccc(C(C)(C)C)cc1 (centres undefined), the melting point was 118 to 120 °C.
In the case of CCOC(=O)C(C)(OC)C(=O)Nc1cc(Cl)cc(Cl)c1 (centres undefined), the melting point is reported as 72 to 75 °C.
O=C(O)CCC(=O)c1ccc(F)c([N+](=O)[O-])c1 showed a melting point of 136 °C.
CCCCC(Oc1ccc(CCNS(=O)(=O)c2ccc(Cl)cc2)cc1)C(=O)O (centres undefined) showed a melting point of 138 to 139 °C.
Cc1cc2cc(CN3CCC(CCCC(=O)N(C)C)CC3)cnc2cc1NC(=O)c1ccc(-c2ccc(F)cc2)cc1 gave a melting point of 194 °C.
In the case of CCCCCCCCN1C(=O)NC2(CC(C)(CC)N(CCOC(=O)c3ccccc3)C(C)(CC)C2C)C1=O (centres undefined), the melting point is reported as 123 to 124 °C.
O=c1c2c(c1=O)N(CCP(=O)(O)O)CC(O)CN2 (centres undefined) gave a melting point of 215 to 218 °C.
With COc1ccc(C(=O)OCCN2CCC(Nc3nc4ccccc4n3Cc3ccc(F)cc3)CC2)cc1 the melting point was 189 °C.
For COc1c(C(=O)O)n(Cc2ccccc2)c2ccccc12, the melting point was 115 to 117 °C.
Compound CCOC(=O)/C=C/c1ccc(C2COc3c(C)c(C)c(NC(=O)CC(C)(C)C)c(C)c32)cc1 (centres undefined) has a melting point of 176 to 177 °C.
Compound Cc1cc(N2CCC(CC(=O)N3CCN(Cc4ccccc4)CC3)CC2)ccc1Oc1ccc(NS(=O)(=O)c2ccc(Cl)c(Cl)c2)cn1 has a melting point of 151 to 155 °C.
Work on COc1nc2cc([N+](=O)[O-])c(C)c(C(=O)N3CCCNCC3)c2nc1OC yielded a melting point of 141 to 143 °C.
For COc1ccc(-c2cccc(C(=O)NN)c2)cc1OC1CCCC1, the melting point was 167 to 168 °C.
In the case of COc1ccc(C(=O)Nc2c(Cl)cncc2Cl)cc1OC1C=CCC1 (centres undefined), the melting point is reported as 177 to 178 °C.
Cc1nc(-c2ccc(-c3cccs3)cc2)c(-c2ccc(S(C)(=O)=O)cc2)o1 gave a melting point of 183 to 185 °C.
For Cc1nn(C(N)=O)c2c1C(=O)CC(C)(C)C2, the melting point was 173 to 175 °C.
Cc1nc(N(C)C)n2ncc(-c3ccncc3)c2n1 showed a melting point of 195 to 197 °C.
In the case of CCN1C(=O)C(C)(C)C(=O)N(C)c2cc(CN(CCn3ccc4oc(C)cc4c3=O)Cc3ccnnc3)ccc21, the melting point is reported as 137 to 141 °C.
For CCOC(=O)N1CCN(c2cc3nc(C(C)(C)C)sc3cc2N)CC1, the melting point was 215 to 220 °C.
O=S(=O)(Oc1ccc2ncc3c(c2c1)CCCC3)C(F)(F)F showed a melting point of 80 to 81 °C.
CC(C)C(C)C=CC(C)C1CCC2C3=CC=C4CC(O)C=CC4(C)C3CCC21C (centres undefined) gave a melting point of 156 to 157 °C.
O=C(O)c1cccc(-n2c(-c3ccccc3)cc3c2CCCC3)c1 gave a melting point of 191 to 193 °C.
In the case of Cc1cccc(NC(=O)NC2N=C(C3CC3)c3cccc(C)c3N(CC(=O)C3CCCCC3)C2=O)c1 (centres undefined), the melting point is reported as 144 °C.
Compound CC(=O)c1cc2c(cc1F)OC(C)(C)[C@@H](O)[C@@H]2NC(=O)c1ccc(F)cc1 (relative stereo) has a melting point of 200 to 203 °C.
Compound CCOC(=O)CCCn1c(C(=O)O)cc2cc(C)ccc21 has a melting point of 142 °C.
In the case of CCOC(=O)C1CN(Cc2ccccc2)C(=O)C(=C2SC=CS2)C1=O (centres undefined), the melting point is reported as 127 to 129 °C.
O=C(CCl)NCC1(c2ccc(Cl)c(Cl)c2)CCC1 gave a melting point of 104 to 105 °C.
With COc1ccc(-c2[nH]nc3c2C(=O)c2c(NC(=O)Cc4ccc(Cl)cc4)cccc2-3)cc1 the melting point was 238 °C.
CC(Cc1cccc(C(F)(F)F)c1)N(CC(=O)O)Cc1ccccc1 (centres undefined) showed a melting point of 80 °C.
Compound CCc1c(C)[nH]c2cc(OCCN(C)C)c(Cl)cc2c1=O has a melting point of 227 to 230 °C.
Cc1ccc(S(=O)(=O)OCC2Cc3cc(Cl)cc(OS(=O)(=O)C(F)(F)F)c3O2)cc1 (centres undefined) gave a melting point of 55 to 57 °C.
Work on COc1cc(C(=O)O)cc2c1oc1ccccc12 yielded a melting point of 229 to 240 °C.
Work on CC(C)(C)[C@@H](NC(=O)c1cc(Cl)cc(Cl)c1)NC1C(=O)C(=O)C1Nc1cccnc1Cl (some centres undefined) yielded a melting point of 233 to 234 °C.
Work on Nc1cccc(C(=O)Nc2nccn(-c3ccccc3)c2=O)c1 yielded a melting point of over 250 °C.
In the case of O[C@@H](CNCc1ccccc1)C1CCCCC1, the melting point is reported as 56 to 58 °C.
Compound CC1(C)Cc2ccc(C#N)cc2N(C(=O)Nc2ccccc2)C1 has a melting point of 170 to 171 °C.
Work on O=S(c1c(C(F)(F)F)[nH]c2ccccc12)C(F)(F)F (centres undefined) yielded a melting point of 183 to 185 °C.
CCS(=O)c1ccc(-c2coc3ccc(-c4nnc(C)o4)cc23)cc1F (centres undefined) gave a melting point of 187 to 188 °C.
With Cc1nc2c(O)c(CC[C@H](O)c3ccccc3)c(C(=O)N(C)C)cn2c1C the melting point was 185 to 187 °C.
Compound O=c1c(N2CCNCC2)nc2ccccc2n1-c1cccc(F)c1 has a melting point of 149 to 150 °C.
O=c1[nH]c(=Cc2ccc3ccccc3n2)c(=O)[nH]c1=Cc1ccc(Cl)cc1 gave a melting point of 348 to 349 °C.
Work on N#Cc1ccc(OCCCc2cc3c(cc2OCc2ccccc2)CC(CCc2ccccc2)O3)cc1 (centres undefined) yielded a melting point of 154 to 157 °C.
For CC(CI)CCCC(C)C1CC=C2C3=C(CCC21C)C1(C)CCC(O)C(C)(C)C1CC3 (centres undefined), the melting point was 148 °C.
COC(=O)Cc1c(C)n(-c2ccnc3ccccc23)c2ccc(OC)cc12 gave a melting point of 103 to 105 °C.
For CCOC(=O)c1c(C)[nH]c(CC)c1C, the melting point was 108 to 109 °C.
Compound NC(=O)NN=Cc1ccc(N(c2ccccc2)c2ccccc2)cc1 has a melting point of 106 to 114 °C.
In the case of Cc1ccc(-c2c(NS(=O)(=O)c3ccc(C(C)(C)C)cc3)nc(C(C)C)nc2OCCO)cc1, the melting point is reported as 143 to 144 °C.
For CCCCCCCCCCCCCCc1ccc(OCC(O)CO)cc1 (centres undefined), the melting point was 81.5 to 83.5 °C.
In the case of Cc1ncc(CSC(=O)c2ccccc2)c(CO)c1O, the melting point is reported as 174 to 177 °C.
Work on CC(SC1COC(c2ccc(C(=O)Nc3ccc(Br)cc3)cc2)OC1)C(O)(Cn1cncn1)c1ccc(F)cc1F (centres undefined) yielded a melting point of 221 °C.
CSc1nc(C)c(CCO)c(=O)n1C gave a melting point of 117 to 118 °C.
In the case of Nc1c(Cl)cc(C(O)CNCCCCOCCSCCc2ccccc2)cc1Cl (centres undefined), the melting point is reported as 74 to 77 °C.
CCC(CC)c1ccc(Cl)c2nc3n(c12)CCCCN3c1cccc2c1OC(F)(F)O2 gave a melting point of 156 to 158 °C.
Compound CN1CCN(c2cc(Cl)cc3c2c(=O)n(Cc2cccc([N+](=O)[O-])c2)c(=O)n3Cc2ccccc2)CC1 has a melting point of 200 to 205 °C.
Compound CC1COc2c(N3Cc4cccc(F)c4C3)c(F)cc3c(=O)c(C(=O)O)cn1c23 (centres undefined) has a melting point of over 300 °C.
Compound Cc1nn(-c2cc(Oc3ccc([N+](=O)[O-])cc3Cl)c(Cl)cc2Cl)c(=O)n1C(F)F has a melting point of 135 to 136 °C.
CCN=C(Cc1ccccc1)N1CC2C(=O)CCC(c3ccccc3)(c3ccccc3)C2C1 (centres undefined) gave a melting point of 108 °C.
In the case of CN1CCN(c2cc3c(cc2F)c(=O)n(O)c(=O)n3-c2ccccc2F)CC1, the melting point is reported as 160 to 162 °C.
Compound Cc1nc2ccccc2c(NCC(O)CO)c1Br (centres undefined) has a melting point of 140 to 141 °C.
With O=C(Cl)c1cnc2cc(OCc3ccccc3)c(OCc3ccccc3)cn2c1=O the melting point was 152 °C.
For CC(C)CC1=CC(c2ccccc2)C2=C(CCCC2=O)N1 (centres undefined), the melting point was 182 to 184 °C.
Work on CC(=NC(C#N)=C(N)C#N)c1ccccc1O yielded a melting point of 181 to 183 °C.
CC(C)(C)NC(=O)C1CC(C)(C)NC(C)(C)C1=NO (centres undefined) gave a melting point of 136 to 139 °C.
CCCCCCCCCCCCCCCCC#CCBr gave a melting point of 34 to 35 °C.
In the case of CCN1CCN(c2nc(-c3ccc(OC)cc3)nc3sc(C#N)c(C)c23)CC1, the melting point is reported as 173 to 175 °C.
c1ccc2sc(SSN(C3CCCCC3)C3CCCCC3)nc2c1 gave a melting point of 84 to 86 °C.
For Cc1ccc(S(=O)(=O)NCCCCOc2ccc(-c3nc(-c4ccc(Cl)cc4)cs3)cc2)cc1, the melting point was 158 to 159 °C.
Compound CC(C)(C)OC(=O)N1CCC(Oc2ccc3c(c2)NC(=O)CC3)CC1 has a melting point of 158 to 160 °C.
CN1CCC(C(=O)Nc2cccc3nc(NC4CCc5ccccc54)ccc23)CC1 (centres undefined) showed a melting point of 197 °C.
Compound CCC(CC)NC1=NS(=O)(=O)c2ccc(Cl)cc2N1 has a melting point of 224 to 226 °C.
With COc1ccc(C(=O)NNC(=O)c2ccc([N+](=O)[O-])cc2)cc1 the melting point was 256 to 258 °C.
With COC(=O)CCc1nc(-c2ccc(O)cc2)c(-c2ccccc2)o1 the melting point was 115 to 116 °C.
For COc1ccnc(CCc2nc3cc(-c4ccc(S(=O)(=O)Nc5ccc(N(C)C)cc5)cc4)cnc3[nH]2)c1, the melting point was 221 to 222 °C.
NS(=O)(=O)c1cc2c(c(C(=O)N3CCN(c4ncccn4)CC3)c1)OCCO2 gave a melting point of 239 °C.
Cn1c(=O)cc(CCO)c2ccccc21 showed a melting point of 149 to 150 °C.
CCCC(O)(C(=O)Nc1cc(Br)nc(OC)c1)C(C)C (centres undefined) showed a melting point of 116 °C.
In the case of OCCNCCCCCCNCCO, the melting point is reported as 75 to 79 °C.
COc1ccc2nc(C)sc2c1N gave a melting point of 117 to 119 °C.
For CCc1nc2sc3ccccc3n2c1CO, the melting point was 180 to 182 °C.
Nc1ccc(-c2cc3[nH]c4ccc(O)cc4c3c3c2C(=O)NC3=O)cc1 gave a melting point of 256 to 258 °C.
Compound COc1ccc(-c2nccc(N3CCN(c4c(C)c(C)c5c(c4C)CC(C)(C)O5)CC3)n2)cc1 has a melting point of 240 to 242 °C.
For CN(C)C(=O)N1CC2(CCN(C(=O)Nc3nnc(-c4ccccc4)s3)CC2)c2ccccc21, the melting point was 267 °C.
O=[N+]([O-])c1cncnc1O showed a melting point of 300 °C.
For CN(C)c1ccc(-c2[nH]nc3c2C(=O)c2c(NC(=O)CN4CCOCC4)cccc2-3)cc1, the melting point was over 300 °C.
COc1ccc2cc(C(=O)O)oc(=O)c2c1OC gave a melting point of 262 to 263 °C.
Compound C#CCN1CCCNC1=C[N+](=O)[O-] has a melting point of 157 to 158 °C.
NCC1COc2cc(F)cc(-c3ccccc3C(F)(F)F)c2N1 (centres undefined) gave a melting point of 99 °C.
